Measurements: PMC5764323, “The etomidate analog ET-26 HCl retains superior myocardial performance: Comparisons with etomidate in vivo and in vitro” (PLoS ONE, 2018)
pIC50: −log10 of the molar value. Where a name gives a salt, the structure may show the parent alone.

Target: T1, human ether-a-go-go-related gene (hERG) channel (Homo sapiens, UniProt Q12809)
T1 construct: gene KCNH2
Assay: whole-cell patch clamp, hERG tail current in HEK-293 cells
Assay type: cell-based
Text: whole-cell patch clamp, hERG tail current in HEK-293 cells on human ether-a-go-go-related gene (hERG) channel | etomidate inhibited the tail current of the hERG in a concentration-dependent manner | The etomidate analogue, ET-26 HCl, inhibited the hERG current in a similar concentration-dependent manner

T1 sequence (Q12809 whole entry): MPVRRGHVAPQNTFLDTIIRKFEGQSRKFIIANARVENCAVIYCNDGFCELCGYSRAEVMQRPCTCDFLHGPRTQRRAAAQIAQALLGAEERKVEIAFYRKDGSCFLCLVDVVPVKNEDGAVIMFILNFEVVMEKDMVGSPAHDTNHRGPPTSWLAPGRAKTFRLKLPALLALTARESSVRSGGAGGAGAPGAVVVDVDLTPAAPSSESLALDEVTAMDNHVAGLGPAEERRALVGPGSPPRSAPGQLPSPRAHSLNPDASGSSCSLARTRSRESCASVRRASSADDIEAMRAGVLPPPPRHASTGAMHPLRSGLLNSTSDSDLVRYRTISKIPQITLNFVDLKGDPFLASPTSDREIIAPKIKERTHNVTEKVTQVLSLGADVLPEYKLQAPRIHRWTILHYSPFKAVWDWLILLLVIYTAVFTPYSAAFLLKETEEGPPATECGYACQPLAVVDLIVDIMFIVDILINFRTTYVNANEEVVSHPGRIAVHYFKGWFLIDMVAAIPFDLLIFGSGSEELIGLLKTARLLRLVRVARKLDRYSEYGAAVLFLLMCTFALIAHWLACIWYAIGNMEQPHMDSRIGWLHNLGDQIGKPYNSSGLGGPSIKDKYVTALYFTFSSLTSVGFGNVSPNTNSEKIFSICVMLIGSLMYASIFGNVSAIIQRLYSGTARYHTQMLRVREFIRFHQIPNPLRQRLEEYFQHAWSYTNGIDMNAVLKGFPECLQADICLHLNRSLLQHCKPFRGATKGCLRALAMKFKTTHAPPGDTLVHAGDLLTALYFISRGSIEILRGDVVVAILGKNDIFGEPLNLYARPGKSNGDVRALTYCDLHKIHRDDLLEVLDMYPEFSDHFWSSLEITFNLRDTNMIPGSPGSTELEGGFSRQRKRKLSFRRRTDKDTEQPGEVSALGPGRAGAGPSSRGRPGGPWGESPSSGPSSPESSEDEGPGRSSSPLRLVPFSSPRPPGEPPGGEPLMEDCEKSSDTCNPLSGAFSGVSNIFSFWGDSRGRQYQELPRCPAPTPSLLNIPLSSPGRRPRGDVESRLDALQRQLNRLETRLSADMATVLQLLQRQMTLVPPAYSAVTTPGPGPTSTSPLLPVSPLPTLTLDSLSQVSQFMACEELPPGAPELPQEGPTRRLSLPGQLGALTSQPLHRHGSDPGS

| SMILES | pIC50 |
| --- | --- |
| COCCOC(=O)c1cncn1[C@H](C)c1ccccc1 [ET-26 HCl, (R)-2-methoxyethyl1-(1-phenylethyl)-1H-imidazole-5-carboxylate hydrochloride] | 3.13 |
| CCOC(=O)c1cncn1[C@H](C)c1ccccc1 [etomidate] | 3.58 |
